# Laboratory results as given in ChEMBL document CHEMBL1149386, “Design and synthesis of 5-aryl-pyridone-carboxamides as inhibitors of anaplastic lymphoma kinase” (J Med Chem, 2006).
# Experiments:
# [1] = test system: Jurkat; assay: Antiproliferative activity against human T-cell leukemia Jurkat cell line; type: functional, cell-based
# [2] = test system: BaF3; assay: Antiproliferative activity against parental interleukin-3-dependent BaF3 cell line; type: functional, cell-based; conditions: Mus musculus
# [3] = target: ALK tyrosine kinase receptor (Homo sapiens, UniProt Q9UM73); assay: Inhibitory activity against ALK
# [4] = target: T1, Receptor-type tyrosine-protein kinase FLT3 (Homo sapiens, UniProt P36888); assay: Inhibitory activity against Flt3
# T1 sequence (P36888 whole entry): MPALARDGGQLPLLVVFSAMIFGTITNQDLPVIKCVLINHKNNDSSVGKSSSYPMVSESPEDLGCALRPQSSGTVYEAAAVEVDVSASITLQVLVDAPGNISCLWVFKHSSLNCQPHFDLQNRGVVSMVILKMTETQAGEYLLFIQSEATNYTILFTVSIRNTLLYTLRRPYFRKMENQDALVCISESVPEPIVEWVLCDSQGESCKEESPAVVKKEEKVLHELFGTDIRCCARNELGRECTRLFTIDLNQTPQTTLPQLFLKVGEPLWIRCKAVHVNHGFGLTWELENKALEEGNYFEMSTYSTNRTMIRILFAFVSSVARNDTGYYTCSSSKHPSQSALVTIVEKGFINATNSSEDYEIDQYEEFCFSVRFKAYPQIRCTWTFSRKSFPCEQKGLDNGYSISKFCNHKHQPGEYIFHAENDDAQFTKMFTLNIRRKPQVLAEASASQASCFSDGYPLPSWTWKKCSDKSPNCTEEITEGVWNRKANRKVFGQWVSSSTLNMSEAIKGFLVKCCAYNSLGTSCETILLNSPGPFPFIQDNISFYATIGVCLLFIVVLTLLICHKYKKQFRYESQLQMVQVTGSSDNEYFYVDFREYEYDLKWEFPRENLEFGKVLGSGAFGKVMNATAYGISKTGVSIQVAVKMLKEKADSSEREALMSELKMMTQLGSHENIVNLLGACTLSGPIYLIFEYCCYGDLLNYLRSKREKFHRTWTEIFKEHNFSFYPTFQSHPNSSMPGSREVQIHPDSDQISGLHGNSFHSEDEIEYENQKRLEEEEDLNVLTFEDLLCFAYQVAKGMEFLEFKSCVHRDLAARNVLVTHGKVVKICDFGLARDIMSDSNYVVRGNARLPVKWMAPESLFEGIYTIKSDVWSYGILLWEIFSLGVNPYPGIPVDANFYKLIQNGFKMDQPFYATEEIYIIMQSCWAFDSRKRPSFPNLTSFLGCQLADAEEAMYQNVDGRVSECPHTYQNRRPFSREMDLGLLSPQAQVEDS
# [5] = target: Tyrosine-protein kinase ABL1 (Homo sapiens, UniProt P00519); assay: Inhibitory activity against Abl
# [6] = target: Bcr/Abl fusion protein (Homo sapiens, UniProt P00519); assay: Antiproliferative activity against human BCR-ABL positive chronic myeloid leukemia K562 cell line; type: functional, cell-based
# [7] = target: Proto-oncogene tyrosine-protein kinase Src (Homo sapiens, UniProt P12931); assay: Inhibitory activity against Src
# [8] = target: Insulin receptor (Homo sapiens, UniProt P06213); assay: Inhibitory activity against IRK
# [9] = target: Insulin-like growth factor 1 receptor (Homo sapiens, UniProt P08069); assay: Inhibitory activity against IGF1R
# Sequence of ALK tyrosine kinase receptor (Q9UM73 whole entry): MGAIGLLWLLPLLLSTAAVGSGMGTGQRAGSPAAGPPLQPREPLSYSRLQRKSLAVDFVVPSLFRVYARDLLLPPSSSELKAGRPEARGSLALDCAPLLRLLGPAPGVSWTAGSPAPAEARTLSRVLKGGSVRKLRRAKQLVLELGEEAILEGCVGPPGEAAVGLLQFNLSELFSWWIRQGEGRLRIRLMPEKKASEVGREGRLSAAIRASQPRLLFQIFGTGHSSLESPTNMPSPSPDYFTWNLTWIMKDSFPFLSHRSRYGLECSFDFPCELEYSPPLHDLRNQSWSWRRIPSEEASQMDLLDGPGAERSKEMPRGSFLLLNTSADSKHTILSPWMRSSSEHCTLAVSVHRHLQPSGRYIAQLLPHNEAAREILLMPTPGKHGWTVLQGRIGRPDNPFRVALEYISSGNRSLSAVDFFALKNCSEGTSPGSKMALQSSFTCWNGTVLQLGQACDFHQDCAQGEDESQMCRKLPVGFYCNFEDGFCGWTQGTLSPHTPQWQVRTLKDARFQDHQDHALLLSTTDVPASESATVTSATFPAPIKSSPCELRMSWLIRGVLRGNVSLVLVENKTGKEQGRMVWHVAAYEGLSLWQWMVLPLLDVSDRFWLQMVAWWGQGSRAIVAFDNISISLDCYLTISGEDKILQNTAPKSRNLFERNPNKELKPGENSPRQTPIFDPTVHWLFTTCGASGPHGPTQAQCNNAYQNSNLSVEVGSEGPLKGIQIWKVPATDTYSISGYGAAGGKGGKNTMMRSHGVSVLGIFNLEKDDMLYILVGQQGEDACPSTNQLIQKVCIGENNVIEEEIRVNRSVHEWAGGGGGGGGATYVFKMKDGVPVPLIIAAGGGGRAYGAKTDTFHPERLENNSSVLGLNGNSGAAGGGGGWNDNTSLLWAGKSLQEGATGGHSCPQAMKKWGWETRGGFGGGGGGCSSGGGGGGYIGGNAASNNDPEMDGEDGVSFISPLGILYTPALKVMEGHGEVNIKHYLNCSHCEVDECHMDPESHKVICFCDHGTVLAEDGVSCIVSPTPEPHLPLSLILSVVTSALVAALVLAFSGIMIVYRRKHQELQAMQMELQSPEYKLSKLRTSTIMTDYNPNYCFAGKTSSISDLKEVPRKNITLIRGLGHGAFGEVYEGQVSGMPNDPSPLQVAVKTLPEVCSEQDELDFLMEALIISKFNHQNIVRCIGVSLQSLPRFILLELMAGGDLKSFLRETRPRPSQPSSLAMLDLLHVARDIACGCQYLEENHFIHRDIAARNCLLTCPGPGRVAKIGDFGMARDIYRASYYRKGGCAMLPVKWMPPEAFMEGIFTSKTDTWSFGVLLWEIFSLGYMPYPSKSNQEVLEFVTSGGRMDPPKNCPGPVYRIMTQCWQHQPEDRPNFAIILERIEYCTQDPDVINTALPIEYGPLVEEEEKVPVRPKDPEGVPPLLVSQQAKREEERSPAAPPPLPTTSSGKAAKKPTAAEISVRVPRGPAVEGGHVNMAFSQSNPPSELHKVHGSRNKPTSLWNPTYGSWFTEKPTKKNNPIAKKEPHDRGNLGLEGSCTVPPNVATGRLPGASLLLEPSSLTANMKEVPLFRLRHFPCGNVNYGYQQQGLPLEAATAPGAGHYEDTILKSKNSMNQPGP
# Sequence of Tyrosine-protein kinase ABL1 (P00519 whole entry, the tested form may be a part): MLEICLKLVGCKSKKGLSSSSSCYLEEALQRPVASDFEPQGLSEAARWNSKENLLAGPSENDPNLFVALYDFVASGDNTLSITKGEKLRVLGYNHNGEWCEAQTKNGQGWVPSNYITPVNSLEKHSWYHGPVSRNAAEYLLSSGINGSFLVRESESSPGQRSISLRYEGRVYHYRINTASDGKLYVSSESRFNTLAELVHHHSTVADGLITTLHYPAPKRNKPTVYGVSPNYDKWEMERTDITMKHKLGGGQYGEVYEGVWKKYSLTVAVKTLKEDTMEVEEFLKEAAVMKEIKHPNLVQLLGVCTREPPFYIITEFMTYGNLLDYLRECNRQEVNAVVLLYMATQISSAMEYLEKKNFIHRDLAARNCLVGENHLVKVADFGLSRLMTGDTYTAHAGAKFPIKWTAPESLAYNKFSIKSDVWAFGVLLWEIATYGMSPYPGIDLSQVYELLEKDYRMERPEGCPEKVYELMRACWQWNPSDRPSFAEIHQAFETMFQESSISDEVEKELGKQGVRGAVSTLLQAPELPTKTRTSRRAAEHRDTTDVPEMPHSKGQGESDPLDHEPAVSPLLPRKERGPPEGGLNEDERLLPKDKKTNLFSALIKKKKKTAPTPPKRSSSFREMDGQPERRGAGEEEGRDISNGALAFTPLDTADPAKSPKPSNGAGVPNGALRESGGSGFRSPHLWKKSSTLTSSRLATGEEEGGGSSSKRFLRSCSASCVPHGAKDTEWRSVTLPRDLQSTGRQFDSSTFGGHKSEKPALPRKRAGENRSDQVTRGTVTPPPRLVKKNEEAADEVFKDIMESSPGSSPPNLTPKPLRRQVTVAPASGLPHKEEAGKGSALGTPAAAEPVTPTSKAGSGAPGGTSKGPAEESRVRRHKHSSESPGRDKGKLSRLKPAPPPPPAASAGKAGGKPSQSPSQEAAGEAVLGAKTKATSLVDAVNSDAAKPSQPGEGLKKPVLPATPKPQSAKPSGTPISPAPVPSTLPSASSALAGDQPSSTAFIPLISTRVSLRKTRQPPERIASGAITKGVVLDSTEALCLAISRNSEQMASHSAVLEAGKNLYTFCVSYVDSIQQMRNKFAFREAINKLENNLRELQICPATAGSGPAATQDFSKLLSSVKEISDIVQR
# Sequence of Bcr/Abl fusion protein (P00519 whole entry, the tested form may be a part): as above
# Sequence of Bcr/Abl fusion protein (P11274 whole entry, further chain, the tested form may be a part): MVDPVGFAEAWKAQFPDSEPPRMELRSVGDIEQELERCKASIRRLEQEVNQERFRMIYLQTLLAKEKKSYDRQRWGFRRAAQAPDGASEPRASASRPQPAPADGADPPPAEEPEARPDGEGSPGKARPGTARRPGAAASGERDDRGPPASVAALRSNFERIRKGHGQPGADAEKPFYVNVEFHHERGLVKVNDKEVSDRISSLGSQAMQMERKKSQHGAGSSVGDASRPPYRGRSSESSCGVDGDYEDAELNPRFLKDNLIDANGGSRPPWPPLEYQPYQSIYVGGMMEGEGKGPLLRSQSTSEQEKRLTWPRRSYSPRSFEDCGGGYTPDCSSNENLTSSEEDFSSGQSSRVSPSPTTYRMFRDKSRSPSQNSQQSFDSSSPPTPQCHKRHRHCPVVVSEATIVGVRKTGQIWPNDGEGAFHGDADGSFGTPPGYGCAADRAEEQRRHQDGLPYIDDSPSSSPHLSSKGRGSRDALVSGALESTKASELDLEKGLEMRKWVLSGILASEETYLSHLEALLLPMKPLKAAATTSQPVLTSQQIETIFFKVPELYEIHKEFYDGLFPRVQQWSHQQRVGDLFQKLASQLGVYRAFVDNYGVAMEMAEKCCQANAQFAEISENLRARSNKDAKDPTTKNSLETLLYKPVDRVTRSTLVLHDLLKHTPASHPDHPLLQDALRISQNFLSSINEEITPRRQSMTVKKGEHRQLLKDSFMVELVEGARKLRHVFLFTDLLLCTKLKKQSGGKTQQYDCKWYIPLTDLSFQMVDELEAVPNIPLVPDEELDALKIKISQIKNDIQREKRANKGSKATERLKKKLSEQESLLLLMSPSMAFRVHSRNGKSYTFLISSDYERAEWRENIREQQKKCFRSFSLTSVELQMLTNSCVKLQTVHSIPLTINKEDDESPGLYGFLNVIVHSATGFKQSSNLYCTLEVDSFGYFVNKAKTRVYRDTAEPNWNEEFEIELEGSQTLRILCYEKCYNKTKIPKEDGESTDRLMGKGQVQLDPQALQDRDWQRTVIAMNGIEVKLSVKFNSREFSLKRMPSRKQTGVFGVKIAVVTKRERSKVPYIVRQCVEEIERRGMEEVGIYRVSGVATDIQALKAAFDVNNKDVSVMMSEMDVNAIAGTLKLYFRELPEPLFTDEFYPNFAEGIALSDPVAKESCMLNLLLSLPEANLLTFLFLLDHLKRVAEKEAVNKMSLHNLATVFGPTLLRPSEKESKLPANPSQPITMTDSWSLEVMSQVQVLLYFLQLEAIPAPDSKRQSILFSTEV
# Sequence of Proto-oncogene tyrosine-protein kinase Src (P12931 2-536 limits assumed): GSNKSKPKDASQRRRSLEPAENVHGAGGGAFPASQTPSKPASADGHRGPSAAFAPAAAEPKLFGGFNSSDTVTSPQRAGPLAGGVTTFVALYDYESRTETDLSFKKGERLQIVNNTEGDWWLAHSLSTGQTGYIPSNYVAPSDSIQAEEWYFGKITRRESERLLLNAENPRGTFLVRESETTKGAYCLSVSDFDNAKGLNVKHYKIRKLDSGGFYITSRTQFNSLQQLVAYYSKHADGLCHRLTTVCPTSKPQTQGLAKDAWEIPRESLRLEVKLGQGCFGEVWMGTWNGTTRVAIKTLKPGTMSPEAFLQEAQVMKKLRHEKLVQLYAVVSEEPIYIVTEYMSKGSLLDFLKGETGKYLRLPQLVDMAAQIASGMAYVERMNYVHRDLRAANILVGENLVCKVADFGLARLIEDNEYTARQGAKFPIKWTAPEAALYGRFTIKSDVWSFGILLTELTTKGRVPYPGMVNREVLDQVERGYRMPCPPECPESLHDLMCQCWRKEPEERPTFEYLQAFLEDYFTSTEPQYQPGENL
compound,measurement,setting,value
CN1CCN(CCc2ccc(NC(=O)c3cc(-c4ccc5c(c4)OCO5)cnc3O)cc2)CC1,IC50,[1],4.7 µM
same,IC50,[2],18 µM
same,IC50,[3],0.4 µM
same,Ki,[3],0.2 µM
same,IC50,[4],4 µM
same,IC50,[5],> 20 µM
same,IC50,[6],9.5 µM
same,IC50,[7],> 20 µM
COc1ccc(-c2c[nH]c(=O)c(C(=O)Nc3ccc(CN4CCN(C)CC4)cc3)c2)cn1,IC50,[3],3 µM
same,IC50,[8],13.8 µM
CN1CCN(Cc2ccc(NC(=O)c3cc(-c4ccc5nccnc5c4)c[nH]c3=O)cc2)CC1,IC50,[3],5.5 µM
same,IC50,[8],7 µM
Cc1cc(CN2CCN(C)CC2)ccc1NC(=O)c1cc(-c2ccc3c(c2)OCO3)cnc1O,IC50,[3],14.5 µM
same,IC50,[8],> 40 µM
Cc1nc2cc(-c3cnc(O)c(C(=O)Nc4ccc(CN5CCN(C)CC5)cc4)c3)ccc2s1,IC50,[3],3.8 µM
same,IC50,[8],16 µM
CN1CCN(Cc2ccc(NC(=O)c3cc(-c4ccc5c(c4)OCO5)cn(C)c3=O)cc2)CC1,IC50,[3],> 40 µM
same,IC50,[8],> 40 µM
CN1CCN(Cc2ccc(NC(=O)c3cc(-c4ccncc4)cnc3O)cc2)CC1,IC50,[3],19.5 µM
same,IC50,[8],> 40 µM
CN1CCN(CCCc2ccc(NC(=O)c3cc(-c4ccc5c(c4)OCO5)cnc3O)cc2)CC1,IC50,[1],9.3 µM
same,IC50,[2],16.2 µM
same,IC50,[3],1.3 µM
same,Ki,[3],1.1 µM
same,IC50,[9],> 20 µM
same,IC50,[4],> 20 µM
same,IC50,[5],> 20 µM
same,IC50,[8],10.1 µM
same,Ki,[8],9 µM
same,IC50,[6],14.6 µM
same,IC50,[7],> 20 µM
COc1ncc(-c2ccc3c(c2)OCO3)cc1C(=O)Nc1ccc(CN2CCN(C)CC2)cc1,IC50,[3],20.3 µM
same,IC50,[8],> 40 µM
COc1cc(CN2CCN(C)CC2)ccc1NC(=O)c1cc(-c2ccc3c(c2)OCO3)cnc1O,IC50,[3],13.8 µM
same,IC50,[8],> 40 µM
CN1CCN(Cc2ccc(N(C)C(=O)c3cc(-c4ccc5c(c4)OCO5)cnc3O)cc2)CC1,IC50,[3],3.7 µM
same,IC50,[8],32.5 µM
COc1cc(-c2c[nH]c(=O)c(C(=O)Nc3ccc(CN4CCN(C)CC4)cc3)c2)cc(OC)c1OC,IC50,[3],7.5 µM
same,IC50,[8],33.5 µM
CN1CCN(Cc2ccc(NC(=O)c3cc(-c4ccc5c(c4)OCO5)cnc3Cl)cc2)CC1,IC50,[3],26.8 µM
same,IC50,[8],27.3 µM
CN1CCN(Cc2ccc(NC(=O)c3cc(-c4ccc5c(c4)OCO5)cnc3O)cc2)CC1,IC50,[1],9.2 µM
same,IC50,[2],> 25 µM
same,IC50,[3],0.9 µM
same,Ki,[3],0.5 µM
same,IC50,[9],> 20 µM
same,IC50,[4],> 20 µM
same,IC50,[5],> 20 µM
same,IC50,[6],12.9 µM
same,IC50,[7],> 20 µM
CN1CCN(c2ccc(NC(=O)c3cc(-c4ccc5c(c4)OCO5)c[nH]c3=O)cc2)CC1,IC50,[4],5 µM
same,IC50,[5],> 20 µM
same,IC50,[6],3.8 µM
same,IC50,[7],> 20 µM
